US20260034112A1, “MULTI-CYCLIC IRAK1 AND IRAK4 INHIBITING COMPOUNDS AND USES THEREOF” (CHILDREN'S HOSPITAL MEDICAL CENTER, priority 2022, published 2026)
Where two headings read alike, the source gives them in different places.

Test system: THP1 cells
Assay type: cell-based, human
Conditions: PF-06650833 vs DMSO in THP1 cells

Compound: CC[C@@H]1[C@H](F)C(=O)N[C@@H]1COc1nccc2cc(C(N)=O)c(OC)cc12 [PF-06650833, Zimlovisertib]
- Log(FC) (gene ACVR1C): −0.6723
- Log(FC) (gene ADPGK-AS1): −0.6683
- Log(FC) (gene ALDH1A3): −0.6705
- Log(FC) (gene APOBR): −0.6497
- Log(FC) (gene APOC1): −0.67
- Log(FC) (gene AQP3): −0.6432
- Log(FC) (gene ARHGAP25): −0.5895
- Log(FC) (gene ARRDC3-AS1): −0.5996
- Log(FC) (gene ASGR2): −0.631
- Log(FC) (gene BMP8B): −0.6206
- Log(FC) (gene BPI): −0.6416
- Log(FC) (gene C1QL4): −0.5987
- Log(FC) (gene C1orf226): −0.604
- Log(FC) (gene C1orf228): −0.634
- Log(FC) (gene C3): −0.6607
- Log(FC) (gene C19orf35): −0.675
- Log(FC) (gene C19orf59): −0.6476
- Log(FC) (gene C20orf197): −0.6914
- Log(FC) (gene CACNA2D3): −0.6049
- Log(FC) (gene CALHM2): −0.6575
- Log(FC) (gene CCDC78): −0.6022
- Log(FC) (gene CCL23): −0.6739
- Log(FC) (gene CD300LB): −0.5972
- Log(FC) (gene CENPH): −0.6701
- Log(FC) (gene DGKG): −0.6202
- Log(FC) (gene EVI2B): −0.6362
- Log(FC) (gene FAM111B): −0.6646
- Log(FC) (gene FAM161B): −0.6003
- Log(FC) (gene FAS): −0.6791
- Log(FC) (gene FAT4): −0.6913
- Log(FC) (gene FMO5): −0.639
- Log(FC) (gene FOS): −0.5974
- Log(FC) (gene FOSL1): −0.6175
- Log(FC) (gene GAPT): −0.6025
- Log(FC) (gene GIPC3): −0.6076
- Log(FC) (gene GNG12): −0.6632
- Log(FC) (gene GPR35): −0.6621
- Log(FC) (gene HSPA1L): −0.6007
- Log(FC) (gene HYDIN2): −0.6113
- Log(FC) (gene IL1R1): −0.6855
- Log(FC) (gene IL16): −0.667
- Log(FC) (gene IQGAP2): −0.5919
- Log(FC) (gene KCNA3): −0.6759
- Log(FC) (gene KIF21B): −0.6912
- Log(FC) (gene KLHL30): −0.6632
- Log(FC) (gene KREMEN2): −0.6258
- Log(FC) (gene LDOC1): −0.6494
- Log(FC) (gene LHFPL2): −0.6019
- Log(FC) (gene LINC01094): −0.6762
- Log(FC) (gene LOC81691): −0.6095
- Log(FC) (gene LOC339862): −0.6552
- Log(FC) (gene LOC100093631): −0.631
- Log(FC) (gene LOC100507642): −0.6508
- Log(FC) (gene LOC101927841): −0.6312
- Log(FC) (gene LOC101929119): −0.6138
- Log(FC) (gene LOC101929545): −0.5904
- Log(FC) (gene LOC102723883): −0.5967
- Log(FC) (gene MPEG1): −0.6879
- Log(FC) (gene MPO): −0.6316
- Log(FC) (gene MPZ): −0.5945
- Log(FC) (gene MTMR11): −0.6705
- Log(FC) (gene MUC19): −0.6358
- Log(FC) (gene NCALD): −0.6
- Log(FC) (gene NHLRC3): −0.66
- Log(FC) (gene NHSL2): −0.639
- Log(FC) (gene NMNAT2): −0.6786
- Log(FC) (gene PAX8): −0.674
- Log(FC) (gene PCED1B-AS1): −0.6355
- Log(FC) (gene PDCD4): −0.6069
- Log(FC) (gene PODNL1): −0.6661
- Log(FC) (gene PRTN3): −0.6776
- Log(FC) (gene PSTPIP1): −0.6238
- Log(FC) (gene RGS3): −0.6231
- Log(FC) (gene RPSAP9): −0.6104
- Log(FC) (gene RSPO1): −0.6269
- Log(FC) (gene S1PR3): −0.6476
- Log(FC) (gene S1PR5): −0.6503
- Log(FC) (gene SCIMP): −0.6308
- Log(FC) (gene SERPINA1): −0.615
- Log(FC) (gene SETBP1): −0.6709
- Log(FC) (gene SIM1): −0.6107
- Log(FC) (gene SLC2A3): −0.6056
- Log(FC) (gene SLC6A11): −0.6327
- Log(FC) (gene SLC9A7): −0.6539
- Log(FC) (gene SNORA73A): −0.6228
- Log(FC) (gene SNX10): −0.6217
- Log(FC) (gene SWT1): −0.6012
- Log(FC) (gene SYN3): −0.6041
- Log(FC) (gene SYTL1): −0.5922
- Log(FC) (gene TACC2): −0.6004
- Log(FC) (gene THBS4): −0.6785
- Log(FC) (gene TLR1): −0.6365
- Log(FC) (gene TMEM45A): −0.5913
- Log(FC) (gene TMEM238): −0.6139
- Log(FC) (gene TNFSF10): −0.6794
- Log(FC) (gene TNS1): −0.6915
- Log(FC) (gene TREM1): −0.6699
- Log(FC) (gene TRIM72): −0.6733
- Log(FC) (gene ZNF630): −0.6307
- Log(FC) (gene ZNF836): −0.606
